Data as given in ChEMBL document CHEMBL2057107, “Synthesis and evaluation of aplysinopsin analogs as inhibitors of human monoamine oxidase A and B” (Bioorg Med Chem Lett, 2012).

How the values were obtained:
[1] = biological target: T1, Amine oxidase [flavin-containing] A (Homo sapiens, UniProt P21397); experiment: Inhibition of human recombinant MAO-A using kynuramine as substrate preincubated with compound for 15 mins measured after 20 mins by fluorometric analysis
T1 sequence (P21397 whole entry): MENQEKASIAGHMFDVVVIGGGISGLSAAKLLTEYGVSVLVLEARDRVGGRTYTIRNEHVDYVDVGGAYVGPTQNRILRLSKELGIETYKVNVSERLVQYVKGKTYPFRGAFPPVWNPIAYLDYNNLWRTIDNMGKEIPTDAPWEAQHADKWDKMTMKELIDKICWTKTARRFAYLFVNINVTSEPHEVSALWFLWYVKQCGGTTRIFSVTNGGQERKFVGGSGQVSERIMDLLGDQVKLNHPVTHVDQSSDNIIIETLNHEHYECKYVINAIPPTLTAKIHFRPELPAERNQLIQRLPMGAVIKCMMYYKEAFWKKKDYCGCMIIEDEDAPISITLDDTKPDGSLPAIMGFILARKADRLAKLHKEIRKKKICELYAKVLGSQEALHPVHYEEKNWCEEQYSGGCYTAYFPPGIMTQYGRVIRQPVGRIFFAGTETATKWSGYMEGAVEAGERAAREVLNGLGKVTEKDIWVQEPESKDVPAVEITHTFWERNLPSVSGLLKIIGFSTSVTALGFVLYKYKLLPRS

[2] = biological target: T2, Amine oxidase [flavin-containing] B (Homo sapiens, UniProt P27338); experiment: Inhibition of human recombinant MAO-B using kynuramine as substrate preincubated with compound for 15 mins measured after 20 mins by fluorometric analysis
T2 sequence (P27338 whole entry): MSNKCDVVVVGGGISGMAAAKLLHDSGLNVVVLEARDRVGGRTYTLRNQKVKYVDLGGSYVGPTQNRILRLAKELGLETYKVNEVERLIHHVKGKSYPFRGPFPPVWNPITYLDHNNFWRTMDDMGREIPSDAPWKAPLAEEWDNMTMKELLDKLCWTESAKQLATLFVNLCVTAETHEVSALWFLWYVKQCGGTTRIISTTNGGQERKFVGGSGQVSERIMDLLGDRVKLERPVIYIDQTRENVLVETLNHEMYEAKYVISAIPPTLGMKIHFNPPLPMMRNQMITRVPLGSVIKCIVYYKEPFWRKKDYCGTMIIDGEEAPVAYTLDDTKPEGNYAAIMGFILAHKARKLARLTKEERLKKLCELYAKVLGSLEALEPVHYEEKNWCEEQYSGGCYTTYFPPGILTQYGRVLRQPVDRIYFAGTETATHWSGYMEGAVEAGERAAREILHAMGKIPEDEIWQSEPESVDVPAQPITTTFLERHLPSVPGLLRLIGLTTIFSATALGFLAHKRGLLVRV

[3] = organism: Homo sapiens; experiment: Selectivity ratio of IC50 for human recombinant MAO-B to IC50 for human recombinant MAO-A

Structure (SMILES)	IC50 [1] [µM]	IC50 [2] [µM]	Ratio IC50 [3]
CN1C(=N)N/C(=C\c2c[nH]c3ccccc23)C1=O	1.97	34.3	17.5
CN1C(=N)N/C(=C\c2c[nH]c3cc(Br)ccc23)C1=O	0.165	3.8	23
C/N=C1\NC(=O)/C(=C/c2c[nH]c3ccc(Br)cc23)N1	1.2	2	1.66
C/N=C1\NC(=O)/C(=C\c2c[nH]c3ccccc23)N1C [ISOPLYSIN A]	3.08	33.8	11
CSC1=NC(=O)/C(=C/c2c[nH]c3cc(Br)ccc23)N1	0.533	1.42	2.65
C/N=C1\NC(=O)/C(=C/c2c[nH]c3ccccc23)N1	13.3	6	0.45
O=C1NC(=S)N/C1=C\c1c[nH]c2cccc(Br)c12	0.267	0.45	1.68
CN1C(=N)N/C(=C\c2c[nH]c3cccc(Br)c23)C1=O	1.52	37	24.4
CSC1=NC(=O)/C(=C/c2c[nH]c3c(Br)cccc23)N1	0.627	2.43	3.88
CN1C(=N)N/C(=C\c2c[nH]c3ccc(Br)cc23)C1=O	0.327	4.3	13.2
C/N=C1\NC(=O)/C(=C/c2c[nH]c3c(Br)cccc23)N1	3.9	26	6.66
C/N=C1/N/C(=C\c2c[nH]c3cccc(Br)c23)C(=O)N1C	5.48	26.8	4.9
CSC1=N/C(=C\c2c[nH]c3ccccc23)C(=O)N1	2.78	59.3	21.3
C/N=C1\NC(=O)/C(=C\c2c[nH]c3cccc(Br)c23)N1C	2.58	26.3	10.2
C/N=C1\NC(=O)/C(=C\c2c[nH]c3cc(Br)ccc23)N1C	0.029	2.67	92
C/N=C1\N(C)C(=O)/C(=C\c2c[nH]c3ccccc23)N1C [METHYLAPLYSINOPSIN]	0.098	9.02	92.3
N=C1NC(=O)/C(=C/c2c[nH]c3c(Br)cccc23)N1	5.52	27.8	5.04
CN1C(=N)N(C)/C(=C/c2c[nH]c3cccc(Br)c23)C1=O	2.07	51.2	24.8
C/N=C1\NC(=O)/C(=C\c2c[nH]c3ccc(Br)cc23)N1C	0.263	11.6	44.2
C/N=C1\N(C)C(=O)/C(=C\c2c[nH]c3cccc(Br)c23)N1C	0.623	5.22	8.37
C/N=C1\NC(=O)/C(=C/c2c[nH]c3cc(Br)ccc23)N1	4.43	20.7	4.66
CSC1=NC(=O)/C(=C/c2c[nH]c3ccc(Br)cc23)N1	7.13	8.75	1.22
CN1C(=N)N(C)/C(=C/c2c[nH]c3cc(Br)ccc23)C1=O	0.0056	0.447	
CN1C(=N)NC(=O)/C1=C\c1c[nH]c2ccccc12	12.2	43.2	3.55
CN1C(=N)NC(=O)/C1=C\c1c[nH]c2cc(Br)ccc12	6.07	35.7	5.87

Structure (SMILES)	IC50 [1] [µM]	IC50 [2] [µM]	Ratio IC50 [3]
N=C1NC(=O)/C(=C/c2c[nH]c3cccc(Br)c23)N1	2.47	28.3	11.5
C/N=C1\NC(=O)/C(=C/c2c[nH]c3cccc(Br)c23)N1	1.8	7.03	3.9
C/N=C1\NC(=O)/C(=C\c2c[nH]c3c(Br)cccc23)N1C	1.9	12.8	6.75
CSC1=NC(=O)/C(=C/c2c[nH]c3cccc(Br)c23)N1	0.677	3.73	5.51
N=C1NC(=O)/C(=C/c2c[nH]c3cc(Br)ccc23)N1	3.68	25.3	6.88
C/N=C1/N/C(=C\c2c[nH]c3c(Br)cccc23)C(=O)N1C	1.08	4.26	3.94
C/N=C1\N(C)C(=O)/C(=C\c2c[nH]c3ccc(Br)cc23)N1C	0.085	0.37	4.38
CN1C(=N)NC(=O)/C1=C\c1c[nH]c2c(Br)cccc12	6.11	34.3	5.62
C/N=C1\N(C)C(=O)/C(=C\c2c[nH]c3cc(Br)ccc23)N1C	0.018	0.207	11.2
O=C1NC(=S)N/C1=C\c1c[nH]c2cc(Br)ccc12	1.53	2.57	1.67
CN1C(=N)N(C)/C(=C/c2c[nH]c3ccc(Br)cc23)C1=O	0.236	2.7	11.4
N=C1NC(=O)/C(=C/c2c[nH]c3ccccc23)N1	12.8	33	2.59
C/N=C1/N/C(=C\c2c[nH]c3ccccc23)C(=O)N1C	5.82	30.5	5.24
CN1C(=N)N(C)/C(=C/c2c[nH]c3ccccc23)C1=O [APLYSINOPSIN]	0.035	10	290
CN1C(=N)NC(=O)/C1=C\c1c[nH]c2cccc(Br)c12	26.2	> 100	
N=C1NC(=O)/C(=C/c2c[nH]c3ccc(Br)cc23)N1	5.87	11.3	1.93
CN1C(=N)NC(=O)/C1=C\c1c[nH]c2ccc(Br)cc12	8	24.5	3.06
O=C1NC(=S)N/C1=C\c1c[nH]c2c(Br)cccc12	0.543	1.24	2.27
C/N=C1\N(C)C(=O)/C(=C\c2c[nH]c3c(Br)cccc23)N1C	0.153	2.82	18.4
CN1C(=N)N/C(=C\c2c[nH]c3c(Br)cccc23)C1=O	1.2	14.3	11.9
O=C1NC(=S)N/C1=C\c1c[nH]c2ccccc12	14.3	24.3	1.69
CN1C(=N)N(C)/C(=C/c2c[nH]c3c(Br)cccc23)C1=O	0.052	3.12	60.5
C/N=C1/N/C(=C\c2c[nH]c3cc(Br)ccc23)C(=O)N1C	1.12	25.7	22.9
C/N=C1/N/C(=C\c2c[nH]c3ccc(Br)cc23)C(=O)N1C	3.25	16.8	5.16
O=C1NC(=S)N/C1=C\c1c[nH]c2ccc(Br)cc12	1.23	2.57	2.08
